Here are results for three molecules from patent US10961309B2, “Reducing systemic regulatory T cell levels or activity for treatment of disease and injury of the CNS” (Yeda Research and Development Co. Ltd, priority 2014, dated 2021).

“Also recorded” adds a separate entry of the source.

In experiment [1] the test system is hippocampal gliosis (GFAP). Put plainly: GFAP immunostaining (astrogliosis). The class given is in vivo, mouse. The procedure:
Tissue processing and immunohistochemistry were performed on paraffin embedded sectioned mouse (6 μm thick) and human (10 μm thick) brains. For human ICAM-1 staining, primary mouse anti-ICAM (1:20 Abcam; ab2213) antibody was used. Slides were incubated for 10 min with 3% H2O2, and a secondary biotin-conjugated anti-mouse antibody was used, followed by biotin/avidin amplification with Vectastain ABC kit (Vector Laboratories). Subsequently, 3,3′-diaminobenzidine (DAB substrate) (Zytomed kit) was applied; slides were dehydrated and mounted with xylene-based mounting solution. For tissue stainings, mice were transcardially perfused with PBS prior to tissue excision and fixation. CP tissues were isolated under a dissecting microscope (Stemi DV4; Zeiss) from the lateral, third, and fourth ventricles of the brain. […] Microscopic analysis, was performed using a fluorescence microscope (E800; Nikon) or laser-scanning confocal microscope (Carl Zeiss, Inc.). The fluorescence microscope was equipped with a digital camera (DXM 1200F; Nikon), and with either a 20× NA 0.50 or 40× NA 0.75 objective lens (Plan Fluor; Nikon). […] For quantification of staining intensity, total cell and background staining was measured using ImageJ software (NIH), and intensity of specific staining was calculated, as previously described (Burgess et al, 2010). […]

For experiment [2], the system named is hippocampal cytokine and neurotropic factor mRNA. Put plainly: Brain parenchyma / hippocampus mRNA expression by RT-qPCR. The class given is in vivo, mouse. How it is done: Total RNA of the hippocampal dentate gyrus (DG) was extracted with TRI Reagent (Molecular Research Center) and purified from the lysates using an RNeasy Kit (Qiagen). Total RNA of the choroid plexus was extracted using an RNA MicroPrep Kit (Zymo Research). mRNA (1 μg) was converted into cDNA using a High Capacity cDNA Reverse Transcription Kit (Applied Biosystems). The expression of specific mRNAs was assayed using fluorescence-based quantitative real-time PCR (RT-qPCR). RT-qPCR reactions were performed using Fast-SYBR PCR Master Mix (Applied Biosystems). Quantification reactions were performed in triplicate for each sample using the standard curve method. Peptidylprolyl isomerase A (ppia) was chosen as a reference (housekeeping) gene. The amplification cycles were 95° C. for 5 s, 60° C. for 20 s, and 72° C. for 15 s. At the end of the assay, a melting curve was constructed to evaluate the specificity of the reaction. For ifn-γ and ppia gene analysis, the cDNA was pre-amplified in 14 PCR cycles with non-random PCR primers, thereby increasing the sensitivity of the subsequent real-time PCR analysis, according to the manufacturer's protocol (PreAmp Master Mix Kit; Applied Biosystems). mRNA expression was determined using TaqMan RT-qPCR, according to the manufacturer's instructions (Applied Biosystems). All RT-qPCR reactions were performed and analyzed using StepOne software V2.2.2 (Applied Biosystems). The following TaqMan Assays-on-Demand™ probes were used: Mm02342430_g1 (ppia) and Mm01168134_m1 (ifn-γ).
For all other genes examined, the following primers were used: […]
(In general: Quantitative PCR measures a nucleic acid by following its amplification.)

[3] abbreviates: weekly-GA vs untreated AD-Tg mice, age 6 m.

On to `CC1=C(/C=C/C(C)=C/C=C/C(C)=C/C(=O)O)C(C)(C)CCC1` [ATRA, All-trans retinoic acid], for which, in experiment [1] (3 weeks after last ATRA injection, AD-Tg mice), the gliosis is recorded as 2-3 fold increase.

With Diphtheria toxin [DTx], in experiment [2] (AD-Tg/DTR+ mice, brain parenchyma, 3 weeks after last DTx injection), the “mRNA expression levels of pro-inflammatory cytokines (il-12p40, tnf-α)” value was “reduced mRNA expression levels”. Besides, the “foxp3 and il10 mRNA expression” value in experiment [2] (AD-Tg/DTR+ mice, hippocampus, 3 weeks after last DTx injection) is recorded as “increased expression”. For the same molecule, in experiment [1] (AD-Tg/DTR+ mice, 3 weeks after last DTx injection), the “hippocampal gliosis (GFAP immunostaining)” value is reported as “reduced astrogliosis; also recorded: reduction in hippocampal gliosis”.

Glatiramer acetate [GA]: in experiment [2] (weekly-GA 100 μg s.c. over 4 weeks, 5XFAD AD-Tg mice, hippocampus), the neuroinflammation entry was “reduced neuroinflammation”. In experiment [2] (setting [3]), the “hippocampal mRNA of anti-inflammatory cytokines IL-10 and TGF-β” value was “elevation”; the “hippocampal mRNA of neurotropic factors IGF-1 and BDNF” value is on record as “elevation”; the “hippocampal mRNA of pro-inflammatory cytokines TNF-α, IL-1β and IL-12p40” value is given as “reduced expression”.
